Patent publication US10945427B2, “Trehalose and dextran-containing solution for transplanting mammalian cells” (OTSUKA PHARMACEUTICAL FACTORY, INC., priority 2013, dated 2021)

The compounds below were run on Human mesenchymal stem cells from bone marrow [hMSC-BM] (assay: Cell survival rate of hMSC-BM preserved in solution for cell transplantation (Trypan blue)). Settings: hMSC-BM preserved for 14 days; saccharide-containing Lactec injection without trehalose or dextran.
Type: cell-based
Experimental: Human mesenchymal stem cells from bone marrow [hMSC-BM] (from Lonza Co., Ltd.) were prepared according the procedures described in [1] to [8] below and used in the present experiment.
[1] hMSC-BM were cultured in a 5% CO2 incubator at 37° C. in the presence of a medium kit specific for human mesenchymal stem cells (from Lonza Co., Ltd.) (hereinafter referred to as “MSC medium”) using a 75-cm^2 flask. The state of the cells was observed under a microscope, and culture was performed until a confluent state of about 80% was reached.
[2] The […] was removed using an aspirator, and hMSC-BM were rinsed with 8 mL/flask of PBS (from Invitrogen Co., Ltd.).
[4] Swing was carried out in a slow manner while hMSC-BM were observed under a microscope until about 90% thereof were detached.
Centrifugation was carried out at 600×g and 25° C. for 5 minutes.
[7] The MSC medium as the supernatant was removed using an aspirator, and 4 mL/flask of PBS (from Invitrogen Co., Ltd.) was added, followed by suspending an hMSC-BM pellet (precipitate).
[8] 10 μL of the hMSC-BM suspension was taken; the number of the cells was measured using a cell counter; and PBS (from Invitrogen Co., Ltd.) was added thereto to 5×10^5 cells/mL, which was then cooled with ice.
[1] The hMSC-BM suspension prepared in the step [7] of the “1-1-3 Preparation of Mammalian Cell” described above was dispensed into a 15-mL conical centrifuge tube using […] (100 to 1,000 μL) and centrifuged at 600×g and 25° C. for 5 minutes.
[2] The supernatant after centrifugation treatment was aspirated/removed, and the resultant was suspended in each of the 11 solutions for cell transplantation and then preserved in a refrigerator (under conditions of 4° C.) for […]. To measure the cell survival rate before preservation, the supernatant after centrifugation treatment was aspirated/removed, and the resultant was then suspended in PBS (from Invitrogen Co., Ltd.), immediately followed by taking a portion (20 μL) of the suspension, mixing the portion with 20 μL of Trypan blue stain solution (from Gibco Co., Ltd.), and then measuring the total number of the cells and the number of dead cells using a cell counter under a microscope to evaluate the rate of living cells (see “P” in FIG. 1).
[3] After preserving hMSC-BM in the solution for cell transplantation for 14 days, stirring (5 times pipetting at a liquid volume of 500 μL) was gently performed in a state in which the end of a tip was inserted to a position visually at on the order of 5 mm from the bottom to make cells in a suspended state, and a portion (20 μL) of the suspension was taken into a 1.5-mL microtube, mixed with 20 μL of Trypan blue stain solution (from Gibco Co., Ltd.), and then measured for the total number of the cells and the number of dead cells using a cell counter under a microscope to evaluate the rate of living cells.
With `OC[C@H]1O[C@@H](O[C@H]2[C@H](O)[C@@H](O)C(O)O[C@@H]2CO)[C@H](O)[C@@H](O)[C@H]1O` (stereo partly drawn) [lactose] the “effect of saccharide used alone on cell death, FIG. 7” value (“effect of saccharide used alone” for short) was “had not the effect of suppressing cell death”.
With `OC[C@H]1O[C@H](O[C@H]2[C@H](O)[C@@H](O)[C@H](O)O[C@@H]2CO)[C@H](O)[C@@H](O)[C@@H]1O` [maltose] the “effect of saccharide used alone” value was “had not the effect of suppressing cell death”.
In the case of `OC[C@@H](O)[C@@H](O)[C@H](O)[C@H](O)CO` [mannitol], the “effect of saccharide used alone” value is reported as “had not the effect of suppressing cell death”.
`OC[C@H]1O[C@H](OC[C@H]2O[C@H](O[C@]3(CO)O[C@H](CO)[C@@H](O)[C@@H]3O)[C@H](O)[C@@H](O)[C@@H]2O)[C@H](O)[C@@H](O)[C@H]1O` [raffinose] was tested, and the “effect of saccharide used alone” value was “had not the effect of suppressing cell death”.
In the case of `OC[C@@H](O)[C@@H](O)[C@H](O)[C@@H](O)CO` [sorbitol], the “effect of saccharide used alone” value is reported as “had not the effect of suppressing cell death”.
In the case of `OC[C@H]1O[C@@](CO)(O[C@H]2O[C@H](CO)[C@@H](O)[C@H](O)[C@H]2O)[C@@H](O)[C@@H]1O` [sucrose], the “effect of saccharide used alone” value is reported as “had not the effect of suppressing cell death”.
